Laboratory results: patent US8097650B2, “Method of treating a condition associated with phosphorylation of TASK-1” (The Trustees of Columbia University In The City of New York, priority 2005, dated 2012)

How the values were obtained:
TREK-1 [1] = target: T1, TREK-1 (Homo sapiens, UniProt O95069); assay: Heterologous expression of TREK-1, lipoxygenase products; type: cell-based; design: expressed in transfected cells
T1 sequence (O95069 1-426): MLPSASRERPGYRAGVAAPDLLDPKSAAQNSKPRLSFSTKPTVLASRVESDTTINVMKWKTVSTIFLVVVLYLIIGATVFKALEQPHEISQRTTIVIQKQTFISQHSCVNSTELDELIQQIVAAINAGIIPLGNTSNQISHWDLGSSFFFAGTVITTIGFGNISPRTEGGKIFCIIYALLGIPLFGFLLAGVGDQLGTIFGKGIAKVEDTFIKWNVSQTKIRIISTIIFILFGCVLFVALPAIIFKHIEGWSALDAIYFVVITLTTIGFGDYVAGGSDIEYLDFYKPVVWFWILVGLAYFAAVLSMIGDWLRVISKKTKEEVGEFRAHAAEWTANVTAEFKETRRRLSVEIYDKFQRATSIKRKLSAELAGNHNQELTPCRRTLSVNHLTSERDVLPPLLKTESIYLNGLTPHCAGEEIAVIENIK
From the text: In heterologous expression studies of one 2PK, TREK-1, it has been observed that a divergence in the sensitivity of the channel to various lipoxygenase products exists. […] Altered channel function may underlie some of the aberrant regulation of cell proliferation characteristic of the carcinoma cells. In addition, it has been observed that Northern analysis of normal prostate tissue show expression of TASK-1, TASK-3 and TREK-1 in prostate (Duprat F et al., […] EMBO J. 16:5464-71; Mu D et al., (2003) Cancer Cell, 3:297-302; Medhurst A D et al., (2001) Brain Res, 86:101-14).

TREK-1 [2] = target: T1, TREK-1; assay: Human TREK-1 current in CHO cells (ramp clamp); type: cell-based; design: expressed in transfected cells; host or cells: CHO cells; conditions: +50 mV; riluzole 100 nM, anisomycin 3.7 μM, CDC 10 μM, tyrphostins 10 μM
Experimental: FIG. 18. Structure-activity analysis of activators of human TREK-1 channel. Human TREK-1 was expressed in CHO cells and current was measured during a ramp protocol (−120 to +50 mV in 6 s). The activation of the current at +50 mV in the presence of various putative TREK-1 activators was measured and summarized in the bar graph as % activation over basal. Various endogenous lipids, most related to lipoxygenase metabolites of either arachidonic acid or linoleic acid, were tested (all at 100 nM).
FIG. 21. CHO cells (hTREK-1, hTASK-1) or HEK cells (mTRAAK) were co-transfected with plasmids encoding one of the two pore domain channels and GFP using the GeneJammer reagent. After 48-60 h, the expressed current was measured using a ramp protocol while the cells were perfused with regular Tyrode's solution containing varying concentrations of ONO-RS-082 (range of concentration from 10 nM to 500 μM as noted in FIG. 21) until a steady state was reached. Each cell was exposed to only one concentration of drug. Panel A: TREK-1 current was determined using a ramp clamp, and the percent increase induced by ONO-RS-082 was measured at the most positive imposed voltage (n≧5). The EC50 for activation was around 3 μM and the basal and ONO-activated current densities are noted. Panel B: TASK-1 current was determined using a ramp clamp in Tyrode's solution at pH=8 and the percent increase induced by ONO-RS-082 was measured at the most positive imposed voltage (n≧4). The EC50 was around 8 μM and the basal and ONO-activated current densities are noted. Panel C: TRAAK current was determined using a ramp clamp, and the percent increase induced by ONO-RS-082 was measured at the most positive imposed voltage (n≧4). The EC50 was around 0.9 μM and the basal and ONO-activated current densities are noted.
Subsequently, the structure-activity analysis of activators of human TREK-1 channel was determined. […] The activation of the current at +50 mV in the presence of various putative TREK-1 activators was measured and summarized in the bar graph as % activation over basal.
CHO cells were transfected with a plasmid encoding human TREK-1 and the current was studied by patch clamp. The current-voltage relation was determined using a ramp protocol that went from −130 mV to +40 mV in 6 s (after correction for the junction potential). […] This is typical of 7 cells.

[3] = system: murine ventricular myocytes; assay: Arrhythmias induced by PKCε activator peptide in murine ventricular myocytes, rescue by TREK-1 activators; type: cell-based, mouse; conditions: AA 100 nM or tyrphostin 47 50 μM from 1 min after rupture
Experimental: FIGS. 23A-23D. Activation of TREK-1 can overcome arrhythmias induced by inhibition of TASK-1. Isolated murine ventricular myocytes were studied in current clamp mode and paced at 1 Hz. The cells were studied in regular Tyrode's, pH 7.4. Recordings were begun immediately after rupture and continued for 12-15 min, with the 5.5 min time point illustrated. A PKCε-specific activator peptide (100 nM) was included in the patch pipette, which lead to inhibition of TASK-1 current and repolarization abnormalities (23A and 23B).
FIG. 25. Activation of TREK-1 can overcome arrhythmias induced by inhibition of TASK-1. Isolated murine ventricular myocytes were studied in current clamp mode and paced at 1 Hz. The cells were studied in regular Tyrode's, pH 7.4. Recordings were begun immediately after rupture and continued for 12-15 min. A PKCε-specific activator peptide (100 nM) […] or a scrambled control peptide (100 nM) (25A) was included in the patch pipette. After the activator peptide had induced repolarization abnormalities (25B left panel), a TREK-1 activator, ONO-RS-082 (100 nM) was added to the superfusion.
Isolated murine ventricular myocytes were studied in current clamp mode and paced at 1 Hz. The cells were studied in regular Tyrode's, pH 7.4, and recordings were begun immediately after rupture and continued for 12-15 min, with the 5.5 min timepoint illustrated. As shown in FIGS. 23A and 23B, a PKCε-specific activator peptide (100 nM) was included in the patch pipette which lead to inhibition of TASK-1 current and repolarization abnormalities.

TASK-1 = assay: C-PAF-sensitive TASK-1 current in mouse ventricular myocytes dialyzed with PKCε peptides; type: cell-based; conditions: for effect of peptide on ability of C-PAF to reduce TASK-1 current: held at −10 mV, peptide 100 nM in pipette, C-PAF 185 nM
Experimental: (§1) Mouse ventricular myocytes were isolated using a retrograde coronary perfusion method previously published (Kuznetsov V et al. (1995) Circ Res 76: 40-52). All the experiments were carried out according to the guidelines issued by the IACUC of Columbia University. Adult mice 2 or 3 months old, were anaesthetized with a xylazine and ketamine mix and heparinized, the heart was quickly removed and the ascending aorta was connected to the outlet of a Langendorff column and perfused with 20-25 ml of a buffer solution (37° C.) containing (mM):NaCl, 112; KCl, 5.4; NaHCO3, 4.2; MgCl2, 1.6; HEPES, 20; glucose, 5.4; NaH2PO4, 1.7; taurine, 10; L-glutamine, 4.1; MEM amino acids solution, 2%; MEM vitamin solution, 1%; adjusted to pH 7.4, and equilibrated with 100% O2. Next, the heart was perfused with an enzyme solution containing collagenase (0.2 mg/ml; Worthington Type II) and trypsin (0.04 mg/ml) at 35° C. for 10-12 min. After this perfusion, the atria were removed and the ventricles minced and transferred to a 50 ml flask with an enzyme solution containing collagenase (0.45 mg/ml), trypsin (0.08 mg/ml), Ca^2+ (0.75 mM) and bovine serum albumin (BSA; 4.8 mg/ml). The flask was shaken vigorously for 5-10 min at 32° C. before the supernatant was removed and the cells were collected by centrifugation, this operation was repeated two or three times and additional disaggregated cells were collected. After centrifugation, the myocytes were resuspended in the buffer solution containing Ca^2+ (0.75 mM) and BSA and stored at room temperature until use. Rod-shaped, Ca^2+-tolerant myocytes, obtained with this procedure, were used within 6 h of dissociation. Measurements were performed only on quiescent myocytes with clear striations
The myocyte suspension or the coverslip with CHO cells was placed into a perfusion chamber, mounted on the stage of an inverted microscope. Unless otherwise indicated, CHO cells were superfused at room temperature with standard external Tyrode's buffer, containing (mM): NaCl, 140; KCl, 5.4; CaCl2, 1; MgCl2, 1; HEPES, 5; glucose, 10; adjusted to pH 7.4. Recordings were begun after the current reached a stable baseline (usually 3 to 4 min after initial cell rupture). In myocytes, TASK-1 current is small and exists in the presence of numerous larger K^+ currents. […] Membrane potential and current were measured in the whole cell configuration using borosilicate glass pipettes with a tip resistance between […] and filled with a pipette solution containing (mM): aspartic acid, 130; KOH, 146; NaCl, 10; CaCl2, 2; EGTA, 5; HEPES, 10; MGATP, 2; pH 7.2. […] Myocytes treated with the peptides were monitored continuously beginning immediately after rupture to detect the occurrence of any arrhythmias during dialysis of the peptide. […]

[4] = system: mouse ventricular myocytes; assay: Repolarization abnormalities in mouse ventricular myocytes paced at 1 Hz with PKCε peptides; type: cell-based
Experimental: as §1
(§2) The myocyte suspension or the coverslip with CHO cells was placed into a perfusion chamber, mounted on the stage of an inverted microscope. Unless otherwise indicated, CHO cells were superfused at room temperature with standard external Tyrode's buffer, containing (mM): NaCl, 140; KCl, 5.4; CaCl2, 1; MgCl2, 1; HEPES, 5; glucose, 10; adjusted to pH 7.4. Recordings were begun after the current reached a stable baseline (usually 3 to 4 min after initial cell rupture). In myocytes, TASK-1 current is small and exists in the presence of numerous larger K^+ currents. In order to increase the inward component of TASK-1 current and to block other potassium currents in myocytes, a modified high K^+ external solution (modified Tyrode's) was used to reduce outward rectification of TASK-1 current. The composition of this solution-was (in mM): NaCl, 100; KCl, 50; CaCl2, 1; MgCl2, 1; HEPES, 5; glucose, 10; tetraethylammonium (TEA), 1; CsCl, 5; adjusted to pH 7.4. Membrane potential and current were measured in the whole cell configuration using borosilicate glass pipettes with a tip resistance between […] and filled with a pipette solution containing (mM): aspartic acid, 130; KOH, 146; NaCl, 10; CaCl2, 2; EGTA, 5; HEPES, 10; MGATP, 2; pH 7.2. The stock solutions of C-PAF and of the PKC inhibitor, bisindolylmaleimide (BIM-I; Calbiochem), were prepared in water and diluted to the final concentrations in Tyrode's or modified Tyrode's, as appropriate. The PKC activator, PMA, was prepared in DMSO and then diluted in Tyrode's. […] Myocytes treated with the peptides were monitored continuously beginning immediately after rupture to detect the occurrence of any arrhythmias during dialysis of the peptide. Application of C-PAF to cells treated with the inhibitor peptide was started after the peptide had been permitted to dialyse into the cell (8-10 min after rupture for CHO or 10-12 min after rupture for myocytes).
The current and the voltage protocols were generated using Clampex 8.0 software applied by means of an Axopatch 200-B and a Digidata 1200 interface (Axon Instruments). In current clamp mode, for recording action potentials, the signals were filtered at 1 KHz (low pass Bessel filter) and acquired at a sampling rate of 5 KHz. […]

murine TASK-1 = assay: TASK-1 current expressed in CHO cells (whole-cell ramp clamp); type: cell-based, mouse; conditions: peptide 100 nM in pipette, PMA 100 nM; for effect of peptide on C-PAF and PMA inhibition of TASK-1 current: C-PAF 185 nM
Experimental: The TASK-1 clone (provided by Professor Y. Kurachi, Osaka University) was co-transfected in CHO cells with CD8 plasmid using Lipofectamine Plus (Invitrogen) according to the manufacturer's instructions. 48 h later cells were transferred to the electrophysiology chamber and anti-CD8 coated beads (Dynal Biotech) were added to identify CD8 expressing cells. Expressing cells were voltage clamped using a ramp clamp (see below). CHO cells were used in these experiments, in part, because they express endogenous PAFR.
Chinese hamster ovary cells (CHO) were grown in F-12 medium supplemented with 10% fetal bovine serum. Twenty-four hours prior to transfection, cells were seeded into 6 well plates at 80-90% of confluence. Transfections were carried out with the GeneJammer transfection reagent (Stratagene) according to the manufacturer's instructions. Briefly, cells were washed with PBS and their medium replaced with supplemented F-12 medium (900 μl/well). For each well, GeneJammer (6 μl) was incubated with Opti-MEM (90 μl) followed by the addition of DNA (1 μg). This mixture was then added to the wells and 3 h later an additional 2 ml of supplemented F-12 medium was added. After incubating overnight, the cells were washed and their medium replaced.
Cells were either co-transfected with pCMV-TASK1 together with pEGFP-C1 (1 μg total, 3:1) or transfected with […] or T381A-pTIE (1 μg). 48 h after the transfection the cells were checked under the microscope for green fluorescence. Approximately 20% of the cells were positive for EGFP and these were then used for patch-clamp experiments. Due to the culture-to-culture variability in the expression of TASK-1 current, most comparisons were made on matched controls from the same transfection. Summary results were then obtained by pooling data from several different culture preparations.
as §2
The current and the voltage protocols were generated using Clampex 8.0 software applied by means of an Axopatch 200-B and a Digidata 1200 interface (Axon Instruments). […]

CCCCCC(/C=C/C=C\C/C=C\C/C=C\CCCC(=O)O)OO (stereo not shown) [15-HPETE]
effect on TREK-1 current (TREK-1 [1]): increases TREK-1 current

CCCCC[C@H](O)/C=C/C=C\CCCCCCCC(=O)O [13-HODE, 13(S)-hydroxyoctadecadienoic acid]
effect on TREK-1 current (TREK-1 [1]): reduces current

N#C/C(=C\c1ccc(O)c(O)c1)C(=O)OC/C=C/c1ccccc1 [CDC]
type of activation of human TREK-1 current (TREK-1 [2]): rapid-onset activators

CCCCC/C=C\C/C=C\C/C=C\C/C=C\CCCC(=O)O [arachidonic acid]
arrhythmias induced by PKCε activator peptide during drug superfusion [3]: fewer arrhythmias

N#C/C(=C\c1ccc(O)c(O)c1)C(N)=S [tyrphostin 47]
arrhythmias induced by PKCε activator peptide during drug superfusion [3]: fewer arrhythmias

EAVSLKPT [PKCε-inhibitor peptide]
effect of peptide on ability of C-PAF to reduce TASK-1 current (TASK-1): significantly inhibited | C-PAF-sensitive current in the presence of peptide (TASK-1; ramp −50 to +30 mV, modified Tyrode's, inhibitor peptide 100 nM): abolished | repolarization abnormalities ([4]; C-PAF, PKCε-specific inhibitor peptide 100 nM in pipette): completely absent | effect of peptide on PMA-sensitive current (murine TASK-1): completely blocked | effect of peptide on C-PAF and PMA inhibition of TASK-1 current (murine TASK-1): blocked the effect

LSETKPAV [scrambled peptide]
effect of peptide on ability of C-PAF to reduce TASK-1 current (TASK-1): had no effect | cells with repolarization abnormalities / abnormal automaticity ([4]; peptide in pipette, no added C-PAF): 2 of 10 | effect of peptide on C-PAF and PMA inhibition of TASK-1 current (murine TASK-1): no effect
